In experiment [1] the target is T1, α-1A adrenoceptor (dog prostate).
T1 construct: from tissue; host or cells: canine prostate strips
Description: Functional antagonism of phenylephrine-induced contraction of canine prostate strips. It is filed as cell-based, dog (canine). Conditions: vs phenylephrine-induced contraction, Schild plot; read-out: pA2 Dog Prostate [α-1A] (converted). The text has this: Canine prostate strips were used in vitro as previously described (Hieble, J. P., Boyce, A. J. and Caine, M., Fed. Proc., 45: 2609-2614 (1986)), to determine antagonist potencies against phenylephrine-induced contractions.
(§1) Functional assays indicative of pharmacologically defined α-1 adrenoceptors were used to further characterize compounds. Inhibition of phenylephrine (PE)-induced contraction of canine prostate smooth muscle can be correlated with α-1A adrenoceptor activation. […] For each of these models, agonist dose response curves were repeated against increasing concentrations of test agent to derive a Schild plot [log ([…]) against log (molarity of test agent)] to determine the pA2.

The target in experiment [2] is T2, α-1B adrenoceptor (rat spleen) (Rattus norvegicus, UniProt P15823).
T2 construct: PE-induced contraction of rat spleen; from tissue; host or cells: isolated rat spleen
T2 sequence (P15823 1-515): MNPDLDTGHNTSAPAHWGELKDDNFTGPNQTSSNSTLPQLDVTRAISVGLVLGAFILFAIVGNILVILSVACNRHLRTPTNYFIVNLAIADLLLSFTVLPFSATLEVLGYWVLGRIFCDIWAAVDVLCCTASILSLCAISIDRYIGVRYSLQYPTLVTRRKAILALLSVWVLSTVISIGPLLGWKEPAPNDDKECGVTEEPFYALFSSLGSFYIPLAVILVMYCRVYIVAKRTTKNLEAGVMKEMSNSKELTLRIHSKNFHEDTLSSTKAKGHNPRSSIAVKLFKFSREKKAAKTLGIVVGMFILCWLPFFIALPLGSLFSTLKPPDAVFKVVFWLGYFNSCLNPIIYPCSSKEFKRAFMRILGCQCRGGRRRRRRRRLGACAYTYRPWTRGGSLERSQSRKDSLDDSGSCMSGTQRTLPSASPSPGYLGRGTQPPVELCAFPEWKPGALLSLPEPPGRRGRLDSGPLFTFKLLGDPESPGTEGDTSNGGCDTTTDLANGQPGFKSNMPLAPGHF
The experiment in a line: Functional antagonism of phenylephrine-induced contraction of rat spleen. It is filed as cell-based. Particulars: vs phenylephrine-induced contraction, Schild plot; for Kb: read-out: pA2 Rat Spleen [α-1B] (converted).
Text: as §1

In experiment [3] the target is T3, α-1A adrenoceptor (rat vas deferens) (Rattus norvegicus, UniProt P43140).
T3 construct: PE-induced contraction of rat vas deferens; from tissue; host or cells: isolated rat vas deferens
T3 sequence (P43140 1-466): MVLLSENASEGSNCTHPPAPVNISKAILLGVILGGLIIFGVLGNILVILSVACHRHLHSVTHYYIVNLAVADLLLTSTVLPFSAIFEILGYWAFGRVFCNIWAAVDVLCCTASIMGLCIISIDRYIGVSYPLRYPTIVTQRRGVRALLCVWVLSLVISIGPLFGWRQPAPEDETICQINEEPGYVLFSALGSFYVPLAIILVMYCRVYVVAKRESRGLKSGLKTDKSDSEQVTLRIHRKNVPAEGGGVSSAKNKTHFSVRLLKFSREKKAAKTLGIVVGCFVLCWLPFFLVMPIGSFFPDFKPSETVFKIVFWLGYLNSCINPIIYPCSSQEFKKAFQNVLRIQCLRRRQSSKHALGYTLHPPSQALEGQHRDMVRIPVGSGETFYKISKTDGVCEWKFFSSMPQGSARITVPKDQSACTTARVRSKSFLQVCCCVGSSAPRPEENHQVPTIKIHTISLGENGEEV
The experiment in a line: Functional antagonism of phenylephrine-induced contraction of rat vas deferens. It counts as cell-based. Particulars: vs phenylephrine-induced contraction, Schild plot; read-out: pA2 Rat Vas Deferens [α-1A] (converted).
Text: as §1

Molecules are shown by their SMILES. Where a name gives a salt, the structure may show the parent alone.

T1 sequence (P35348 whole entry): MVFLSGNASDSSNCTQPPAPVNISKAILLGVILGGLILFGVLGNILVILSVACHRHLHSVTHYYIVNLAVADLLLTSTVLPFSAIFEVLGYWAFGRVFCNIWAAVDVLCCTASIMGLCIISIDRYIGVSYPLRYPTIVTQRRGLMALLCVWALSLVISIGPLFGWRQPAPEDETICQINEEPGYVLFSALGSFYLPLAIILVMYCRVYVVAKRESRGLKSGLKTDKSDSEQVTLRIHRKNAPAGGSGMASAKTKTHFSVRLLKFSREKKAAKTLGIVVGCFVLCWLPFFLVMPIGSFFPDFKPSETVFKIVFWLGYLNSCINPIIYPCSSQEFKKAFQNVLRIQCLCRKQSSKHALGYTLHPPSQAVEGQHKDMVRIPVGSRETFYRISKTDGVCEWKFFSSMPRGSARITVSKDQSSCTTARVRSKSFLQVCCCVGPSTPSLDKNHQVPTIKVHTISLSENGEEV

Consider `COc1cccc2c1CC[C@H]1CN(CCn3c(=O)[nH]c4c(C)csc4c3=O)C[C@@H]21` (relative stereo) [Example 2, hydrochloride], for which the Kb in experiment [1] is 0.692 nM; in experiment [2], 6.92 nM; in experiment [3], 3.98 nM.
In the case of `COc1cccc2c1CC[C@H]1CN(CCn3c(=O)[nH]c4ccsc4c3=O)C[C@@H]21` (relative stereo) [Example 5, hydrochloride], the Kb in experiment [1] was 0.692 nM; in experiment [2] it was 4.37 nM; in experiment [3], 6.46 nM.
On the same counts, the results for `CCc1cccc2c1CC[C@H]1CN(CCn3c(=O)[nH]c4cc(OC)c(OC)cc4c3=O)C[C@@H]21` [Example 83, hydrochloride] are 11.2 nM, 120 nM and 8.51 nM.
As for `COc1cccc2c1CC[C@H]1CN(CCn3c(=O)[nH]c4cscc4c3=O)C[C@@H]21` (relative stereo) [Example 8, 3-[2-(cis-6-Methoxy-2,3,3a,4,5,9b-hexahydro-[1H]-benz[e]isoindol-1-yl)ethyl]-thieno[3,4d]pyrimidine-2,4(1H,3H)-dione hydrochloride], the Kb in experiment [1] is 0.457 nM; in experiment [2] it was 5.5 nM; in experiment [3], 3.02 nM.
On to `COc1cc2[nH]c(=O)n(CCN3C[C@@H]4CCc5c(OC)cccc5[C@@H]4C3)c(=O)c2cc1OC` [Example 39, hydrochloride], for which the “pA2 Rat Spleen [α-1B]” value in experiment [2] is listed as 7.52.
`COc1cc2ncn(CCN3C[C@@H]4CCc5c(OC)cccc5[C@@H]4C3)c(=O)c2cc1OC` (relative stereo) [Example 33, 3-[2-(cis-6-Methoxy-2,3,3a,4,5,9b-hexahydro-[1H]-benz[e]isoindol-1-yl)ethyl]-6,7-dimethoxy-quinazoline-4(3H)-one dihydrochloride]: the Kb in experiment [2] was 20.4 nM; in experiment [3], 1.12 nM.
Regarding `COc1cccc2c1CC[C@H]1CN(CCn3c(=O)[nH]c4sccc4c3=O)C[C@@H]21` (relative stereo) [Example 3, hydrochloride], the Kb in experiment [1] was 2.09 nM; in experiment [2], 12.3 nM; in experiment [3], 4.68 nM.
Regarding `COc1cc2ncn(CCN3C[C@@H]4CCc5c(OC)cccc5[C@@H]4C3)c(=O)c2cc1OC` [Example 42, dihydrochloride], the Kb in experiment [2] was 39.8 nM; in experiment [3] it was 5.75 nM.
For the compound `COc1cccc2c1CC[C@H]1CN(CCn3c(=O)[nH]c4sccc4c3=O)C[C@@H]21` [Example 13, hydrochloride], the Kb in experiment [1] is 0.851 nM; in experiment [2], 4.27 nM; in experiment [3], 7.59 nM.
On the same counts, the results for `COc1cccc2c1CC[C@H]1CN(CCn3c(=O)[nH]c4c(OC)cccc4c3=O)C[C@@H]21` (relative stereo) [Example 9, 3-[2-(cis-6-Methoxy-2,3,3a,4,5,9b-hexahydro-[1H]-benz[e]isoindol-1-yl)ethyl]-8-methoxy-quinazoline-2,4(1H,3H)-dione hydrochloride] are 0.407 nM, 8.91 nM and 2.4 nM.
On to `COc1cccc2c1CC[C@H]1CN(CCn3c(=O)[nH]c4c(C)c(OC)sc4c3=O)C[C@@H]21` [Example 64, 3-[2-((3aR,9bR)-cis-6-Methoxy-2,3,3a,4,5,9b-hexahydro-[1H]-benz[e]isoindol-1-yl)ethyl]-6-methoxy-7-methylthieno [3,2-d]primidine-2,4(1H,3H)-dione hydrochloride], for which the Kb in experiment [1] was 1.55 nM.
Take `COc1cccc2c1CC[C@H]1CN(CCn3c(=O)[nH]c4c(C)cc(C)cc4c3=O)C[C@@H]21` (relative stereo) [Example 20, hydrochloride]: the Kb in experiment [1] was 1.48 nM.
Take `COc1cccc2c1CC[C@H]1CN(CCn3c(=O)[nH]c4cccnc4c3=O)C[C@@H]21` (relative stereo) [Example 22, hydrochloride]: in experiment [1], the Kb was 1.51 nM.
As for `COc1cccc2c1CC[C@H]1CN(CCn3c(=O)[nH]c4cc(NS(C)(=O)=O)ccc4c3=O)C[C@@H]21` [Example 76, 3-[2-((3aR,9bR)cis-6-Methoxy-2,3,3a,4,5,9b-hexahydro-1WH-benz[e]isoindol-1-yl)lethyl]-7-methanesulfamlquinazoline-2,4(1H,3H)-dione hydrochloride], the Kb in experiment [1] is 1.86 nM.
Take `COc1cccc2c1CC[C@H]1CN(CCn3c(=O)[nH]c4[nH]ccc4c3=O)C[C@@H]21` (relative stereo) [Example 30]: the Kb in experiment [1] was 1.15 nM.
As for `COc1cc2c(=O)n(CCN3C[C@@H]4CCc5c(OC)cccc5[C@@H]4C3)c(=O)[nH]c2cc1Cl` [Example 49, hydrochloride], the Kb in experiment [1] is 12 nM.
Still for that read-out and setting: the figure for `COc1cccc2c1CC[C@H]1CN(CCn3c(=O)[nH]c4cc(C(N)=O)ccc4c3=O)C[C@@H]21` [Example 46, hydrochloride] is 0.575 nM.
For the compound `COc1cccc2c1CC[C@H]1CN(CCn3c(=O)[nH]c4cccc(C)c4c3=O)C[C@@H]21` (relative stereo) [Example 12, hydrochloride], the Kb in experiment [1] was 21.4 nM; in experiment [2], 6.76 nM; in experiment [3] it was 8.51 nM.
As to `COc1cccc2c1CC[C@H]1CN(CCn3c(=O)[nH]c4c(-c5ccccc5)c(OC)sc4c3=O)C[C@@H]21` [Example 62, hydrochloride], in experiment [1], the Kb is 2.57 nM.
Still for that read-out and setting: the figure for `COc1cccc2c1CC[C@H]1CN(CCn3c(=O)[nH]c4cc5c(cc4c3=O)OCO5)C[C@@H]21` [Example 37, hydrochloride] is 0.24 nM; for `COc1cccc2c1CC[C@H]1CN(CCn3c(=O)[nH]c4sc(C)cc4c3=O)C[C@@H]21` (relative stereo) [Example 29, hydrochloride] it is 1.23 nM; for `COc1cccc2c1CC[C@H]1CN(CCn3c(=O)[nH]c4c(cnn4C)c3=O)C[C@@H]21` (relative stereo) [Example 28, hydrochloride] it is 4.79 nM.
Regarding `COC(=O)c1cc2[nH]c(=O)n(CCN3C[C@@H]4CCc5c(OC)cccc5[C@@H]4C3)c(=O)c2s1` [Example 60, hydrochloride], the Kb in experiment [1] is 0.708 nM.
On to `COc1cccc2c1CC[C@H]1CN(CCn3c(=O)[nH]c4c(C)cccc4c3=O)C[C@@H]21` (relative stereo) [Example 19, hydrochloride], for which, in experiment [1], the Kb was 5.01 nM.
As for `COc1cccc2c1CC[C@H]1CN(CCn3c(=O)[nH]c4c(-c5ccccc5C)csc4c3=O)C[C@@H]21` [Example 84, hydrochloride], in experiment [1], the Kb is 8.13 nM.
For `COc1cc2[nH]c(=O)n(CCN3C[C@@H]4CCc5c(OC)cccc5[C@@H]4C3)c(=O)c2cc1OC` (relative stereo) [Example 10, hydrochloride], the Kb in experiment [2] was 129 nM.
As for `COc1cccc2c1CC[C@H]1CN(CCn3c(=O)[nH]c4c5c(ccc4c3=O)OCO5)C[C@@H]21` [Example 54, hydrochloride], the Kb in experiment [1] is 0.891 nM.
Turning to `COc1cccc2c1CC[C@H]1CN(CCn3c(=O)[nH]c4cc([N+](=O)[O-])ccc4c3=O)C[C@@H]21` [Example 74, hydrochloride], in experiment [1], the Kb was 1.7 nM.
For the compound `COc1cccc2c1CC[C@H]1CN(CCn3c(=O)[nH]c4cnccc4c3=O)C[C@@H]21` (relative stereo) [Example 24, dihydrochloride], the Kb in experiment [1] is 1.29 nM.
For the compound `COc1cccc2c1CC[C@H]1CN(CCn3c(=O)[nH]c4nccnc4c3=O)C[C@@H]21` [Example 87, 3-[2-((3aR,9bR)cis-6-Methoxy-2,3 3a,4,5,9b-hexahydro-[1H]-benz[e]isoindol-1-yl)ethyl]-2,4pteridinedione hydrochloride], the Kb in experiment [1] is 1.29 nM.

The values above are taken from patent publication US5792767A, “Bicyclic substituted hexahydrobenz [e] isoindole alpha-1 adrenergic antagonists” (priority 1995, dated 1998).
